Legend:
[1] = LD50 in mice, i.v., observation time of 14 days; settings: mouse, in vivo, iv, observation time of 14 days
Source text: Additionally, it should be noted that at all dosage levels the test compounds were tolerated very well and produced no toxic side-effects.

[2] = test system: heart rate; experiment: Bradycardiac test: effect of test compound on the heart rate of anesthetized cats; assay type: in vivo
Protocol: The effect of the test compound on the heart rate was tested at various dosage levels on 2-4 cats of both sexes per dose. The average body weight of the cats was 2.5-3.5 kg. For this purpose the animals were anesthetized with nembutal (30 mgm/kg i.p.) and chloralose-urethane (40 mgm/ml chloralose + 200 mgm/ml urethane as required). The test compound in aqueous solution was injected into the Vena saphena (i.v.) or duodenum (i.p.).
The heart rate was registered before and after administration of the test compound on a Grass-polygraph by means of a Grass-tachograph from the electrocardiogram (precordial lead).

SMILES: COc1ccc(CCN(C)CCCN2CCc3cc(OC)c(OC)cc3C2=O)cc1OC.Cl [A, 1-[6,7-dimethoxy-3,4-dihydro-2H-isoquinolin-1-one-2-yl]-3-[N-methyl-N-(2-(3,4-dimethoxy-phenyl)-ethyl)-amino] propane hydrochloride]
- LD50 at 336 h [1]: 53 mg/kg
- Duration of effective action ([2]; 0.1 mgm/kg i.v.): 30 min
- Duration of effective action ([2]; 0.3 mgm/kg i.v.): 30 min
- Duration of effective action ([2]; 1.0 mgm/kg i.v.): 50 min
- Duration of effective action ([2]; 3.0 mgm/kg i.d.): 60 min
- Duration of effective action ([2]; 10.0 mgm/kg i.v.): 70 min
- Duration of effective action ([2]; 30.0 mgm/kg i.d.): 60 min

SMILES: COc1ccc(CCNCCCN2CCc3cc(OC)c(OC)cc3C2=O)cc1OC.Cl [B, 1-[6,7-dimethoxy-3,4-dihydro-2H-isoquinolin-1-one-2-yl]-3-[N-(2-(3,4-dimethoxy-phenyl)-ethyl)-amino] propane hydrochloride]
- Duration of effective action ([2]; 0.3 mgm/kg i.v.): 22 min
- Duration of effective action ([2]; 1.0 mgm/kg i.v.): 17 min
- Duration of effective action ([2]; 2.0 mgm/kg i.v.): 43 min

SMILES: COc1ccc(CCN(C)CCCN2CC(C)(C)c3cc(OC)c(OC)cc3C2=O)cc1OC.Cl [C, 1-[4,4-dimethyl-6,7-dimethoxy-3,4-dihydro-2H-isoquinolin-1-one-2-yl]-3-[N-methyl-N-(2-(3,4-dimethoxy-phenyl)-ethyl)-amino]-propane hydrochloride]
- Duration of effective action ([2]; 0.3 mgm/kg i.v.): 8 min
- Duration of effective action ([2]; 1.0 mgm/kg i.v.): 11 min
- Duration of effective action ([2]; 3.0 mgm/kg i.v.): 18 min

SMILES: COc1ccc(CCNCCCN2CC(C)(C)c3cc(OC)c(OC)cc3C2=O)cc1OC.Cl [D, 1-[4,4-dimethyl-6,7-dimethoxy-3,4-dihydro-2H-isoquinolin-1-one-2-yl]-3-[N-(2-(3,4-dimethoxy-phenyl)-ethyl)-amino]-propane hydrochloride]
- Duration of effective action ([2]; 1.0 mgm/kg i.v.): 6 min
- Duration of effective action ([2]; 3.0 mgm/kg i.v.): 16 min

SMILES: COc1ccc(CCN(C)CCCN2CCCc3cc(OC)c(OC)cc3C2=O)cc1OC.Cl [E, 1-[7,8-dimethoxy-1,2,3,4-tetrahydro-5H-2-benzazepin-1-one-2-yl]-3-[N-methyl-N-(2-(3,4-dimethoxy-phenyl)-ethyl)-amino]-propane hydrochloride]
- Duration of effective action ([2]; 1.0 mgm/kg i.v.): 30 min
- Duration of effective action ([2]; 2.0 mgm/kg i.v.): 20 min
